Measured values published in US8586739B2, “Heterocyclic compounds and their uses” (Amgen Inc., priority 2007, dated 2013).

Tested on: human B cells
Assay: Human B cells proliferation stimulated by anti-IgM (3H thymidine)
Format: cell-based
Procedure: Human B Cells Proliferation stimulate by anti-IgM
Isolate PBMCs from Leukopac or from human fresh blood. Isolate human B cells by using Miltenyi protocol and B cell isolation kit II.—human B cells were Purified by using autoMACS® column.
Activation of Human B Cells
Use 96 well Flat bottom plate, plate 50000/well purified B cells in B cell proffer-ation medium (DMEM+5% FCS, 10 mM Hepes, 50 μM 2-mercaptoethanol); 150 μL medium contain 250 ng/mL CD40L-LZ recombinant protein (Amgen) and 2 μg/mL anti-Human IgM antibody (Jackson ImmunoReseach Lab.#109-006-129), mixed with 50 μL B cell medium containing PI3K inhibitors and incubate 72 h at 37° C. incubator. After 72 h, pulse labeling B cells with 0.5-1 uCi/well ^3H thymidine for overnight ˜18 h, and harvest cell using TOM harvester.

[1] = Homo sapiens, B-cell, 72 h, purified human B cells, anti-Human IgM + CD40L-LZ
[2] = Homo sapiens, B-cell, purified human B cells, anti-Human IgM + CD40L-LZ, 72 h

| Compound | IC50 [1] [nM] | IC50 [2] [nM] |
| --- | --- | --- |
| C[C@H](Nc1ncnc2nc[nH]c12)c1cc2cccc(F)c2nc1-c1cc(F)ccc1F [N-((1S)-1-(2-(2,5-difluorophenyl)-8-fluoro-3-quinolinyl)ethyl)-7H-purin-6-amine] | 12.7 |  |
| C[C@H](Nc1ncnc2[nH]cnc12)c1cc2cccc(Cl)c2nc1-c1cc(F)ccc1OCc1ccccc1 [N-((1S)-1-(2-(2-(benzyloxy)-5-fluorophenyl)-8-chloro-3-quinolinyl)ethyl)-9H-purin-6-amine] | 16.8 |  |
| C[C@H](Nc1ncnc2[nH]cnc12)c1cc2ccc(F)cc2nc1-c1cc(F)ccc1Cl [N-((1S)-1-(2-(2-chloro-5-fluorophenyl)-7-fluoro-3-quinolinyl)ethyl)-9H-purin-6-amine] | 20 |  |
| C[C@H](Nc1ncnc2nc[nH]c12)c1cc2cccc(F)c2nc1-c1cc(F)ccc1Cl [N-((1S)-1-(2-(2-chloro-5-fluorophenyl)-8-fluoro-3-quinolinyl)ethyl)-7H-purin-6-amine] | 33.7 |  |
| C[C@H](Nc1ncnc2[nH]cnc12)c1cc2ccc(F)cc2nc1-c1ccccc1Cl [N-((1S)-1-(2-(2-chlorophenyl)-7-fluoro-3-quinolinyl)ethyl)-9H-purin-6-amine] | 29 | 29 |
| C[C@H](Nc1ncnc2nc[nH]c12)c1cc2cccc(F)c2nc1-c1ccccc1Cl [N-((1S)-1-(2-(2-chlorophenyl)-8-fluoro-3-quinolinyl)ethyl)-7H-purin-6-amine] | 11.4 |  |
| C[C@H](Nc1ncnc2[nH]cnc12)c1cc2ccccc2nc1-c1ccccn1 [N-((1S)-1-(2-(2-pyridinyl)-3-quinolinyl)ethyl)-9H-purin-6-amine] | 5.6 |  |
| C[C@H](Nc1ncnc2[nH]cnc12)c1cc2ccc(F)cc2nc1-c1cc(F)cc(F)c1 [N-((1S)-1-(2-(3,5-difluorophenyl)-7-fluoro-3-quinolinyl)ethyl)-9H-purin-6-amine] | 5.15 |  |
| C[C@H](Nc1ncnc2nc[nH]c12)c1cc2cccc(F)c2nc1-c1cc(F)cc(F)c1 [N-((1S)-1-(2-(3,5-difluorophenyl)-8-fluoro-3-quinolinyl)ethyl)-7H-purin-6-amine] | 7.07 |  |
| C[C@H](Nc1ncnc2nc[nH]c12)c1cc2cccc(F)c2nc1-c1cc(F)cc(Cl)c1 [N-((1S)-1-(2-(3-chloro-5-fluorophenyl)-8-fluoro-3-quinolinyl)ethyl)-7H-purin-6-amine] | 8.09 |  |
| C[C@H](Nc1ncnc2[nH]cnc12)c1nc2cccc(C(F)(F)F)c2nc1-c1ccccc1Cl [N-((1S)-1-(3-(2-chlorophenyl)-5-(trifluoromethyl)-2-quinoxalinyl)ethyl)-9H-purin-6-amine] | 10.4 |  |
| C[C@H](Nc1ncnc2[nH]cnc12)c1nc2cccc(Cl)c2nc1-c1cc(F)ccc1Cl [N-((1S)-1-(5-chloro-3-(2-chloro-5-fluorophenyl)-2-quinoxalinyl)ethyl)-9H-purin-6-amine] | 89.3 |  |
| C[C@H](Nc1ncnc2[nH]cnc12)c1nc2cccc(Cl)c2cc1-c1cccc(F)c1 [N-((1S)-1-(5-chloro-3-(3-fluorophenyl)-2-quinolinyl)ethyl)-9H-purin-6-amine] | 8.78 |  |
| C[C@H](Nc1ncnc2[nH]cnc12)c1cc2ccc(F)cc2[n+]([O-])c1-c1ccccc1 [N-((1S)-1-(7-fluoro-1-oxido-2-phenyl-3-quinolinyl)ethyl)-9H-purin-6-amine] | 4.64 |  |
| C[C@H](Nc1ncnc2[nH]cnc12)c1cc2ccc(F)cc2nc1-c1ccccc1S(C)(=O)=O [N-((1S)-1-(7-fluoro-2-(2-(methylsulfonyl)phenyl)-3-quinolinyl)ethyl)-9H-purin-6-amine] | 6.82 |  |
| C[C@H](Nc1ncnc2[nH]cnc12)c1cc2ccc(F)cc2nc1-c1cccc(S(C)(=O)=O)c1 [N-((1S)-1-(7-fluoro-2-(3-(methylsulfonyl)phenyl)-3-quinolinyl)ethyl)-9H-purin-6-amine] | 148 |  |

| Compound | IC50 [1] [nM] | IC50 [2] [nM] |
| --- | --- | --- |
| C[C@H](Nc1ncnc2[nH]cnc12)c1cc2ccc(F)cc2nc1-c1cccc(F)c1 [N-((1S)-1-(7-fluoro-2-(3-fluorophenyl)-3-quinolinyl)ethyl)-9H-purin-6-amine] | 11.5 |  |
| C[C@H](Nc1ncnc2[nH]cnc12)c1cc2ccc(F)cc2nc1-c1cccnc1 [N-((1S)-1-(7-fluoro-2-(3-pyridinyl)-3-quinolinyl)ethyl)-9H-purin-6-amine] | 12.2 |  |
| C[C@H](Nc1ncnc2[nH]cnc12)c1cc2ccc(F)cc2nc1-c1cccc(F)n1 [N-((1S)-1-(7-fluoro-2-(6-fluoro-2-pyridinyl)-3-quinolinyl)ethyl)-9H-purin-6-amine] | 3.72 |  |
| C[C@H](Nc1ncnc2[nH]cnc12)c1cc2ccc(F)cc2nc1-c1ccccc1 [N-((1S)-1-(7-fluoro-2-phenyl-3-quinolinyl)ethyl)-9H-purin-6-amine] | 5.11 |  |
| C[C@H](Nc1ncnc2[nH]cnc12)c1cc2cccc(Cl)c2nc1-c1nccs1 [N-((1S)-1-(8-chloro-2-(1,3-thiazol-2-yl)-3-quinolinyl)ethyl)-9H-purin-6-amine] | 1.64 |  |
| C[C@H](Nc1ncnc2[nH]cnc12)c1cc2cccc(Cl)c2nc1-c1cscn1 [N-((1S)-1-(8-chloro-2-(1,3-thiazol-4-yl)-3-quinolinyl)ethyl)-9H-purin-6-amine] | 0.537 |  |
| C[C@H](Nc1ncnc2[nH]cnc12)c1cc2cccc(Cl)c2nc1-c1ccc(F)cc1F [N-((1S)-1-(8-chloro-2-(2,4-difluorophenyl)-3-quinolinyl)ethyl)-9H-purin-6-amine] | 14 |  |
| C[C@H](Nc1ncnc2[nH]cnc12)c1cc2cccc(Cl)c2nc1-c1cc(F)ccc1Cl [N-((1S)-1-(8-chloro-2-(2-chloro-5-fluorophenyl)-3-quinolinyl)ethyl)-9H-purin-6-amine] | 46.6 |  |
| C[C@H](Nc1ncnc2[nH]cnc12)c1cc2cccc(Cl)c2nc1-c1ccccc1Cl [N-((1S)-1-(8-chloro-2-(2-chlorophenyl)-3-quinolinyl)ethyl)-9H-purin-6-amine] | 3.6 |  |
| CCc1ncccc1-c1nc2c(Cl)cccc2cc1[C@H](C)Nc1ncnc2[nH]cnc12 [N-((1S)-1-(8-chloro-2-(2-ethyl-3-pyridinyl)-3-quinolinyl)ethyl)-9H-purin-6-amine] | 3.31 |  |
| CCc1ncc(F)cc1-c1nc2c(Cl)cccc2cc1[C@H](C)Nc1ncnc2[nH]cnc12 [N-((1S)-1-(8-chloro-2-(2-ethyl-5-fluoro-3-pyridinyl)-3-quinolinyl)ethyl)-9H-purin-6-amine] | 3.84 |  |
| C[C@H](Nc1ncnc2[nH]cnc12)c1cc2cccc(Cl)c2nc1-c1ccccc1F [N-((1S)-1-(8-chloro-2-(2-fluorophenyl)-3-quinolinyl)ethyl)-9H-purin-6-amine] | 3.56 | 3.56 |
| COc1nc(-c2nc3c(Cl)cccc3cc2[C@H](C)Nc2ncnc3[nH]cnc23)cs1 [N-((1S)-1-(8-chloro-2-(2-methoxy-1,3-thiazol-4-yl)-3-quinolinyl)ethyl)-9H-purin-6-amine] | 17.5 |  |
| Cc1ncccc1-c1nc2c(Cl)cccc2cc1[C@H](C)Nc1ncnc2[nH]cnc12 [N-((1S)-1-(8-chloro-2-(2-methyl-3-pyridinyl)-3-quinolinyl)ethyl)-9H-purin-6-amine] | 4.34 |  |
| C[C@H](Nc1nc(F)nc2[nH]cnc12)c1cc2cccc(Cl)c2nc1-c1ccccn1 [N-((1S)-1-(8-chloro-2-(2-pyridinyl)-3-quinolinyl)ethyl)-2-fluoro-9H-purin-6-amine] | 14 |  |
